In PubChem BioAssay (NCI):
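Five compound concentrations were applied to cells in 96-well plates for 48 hours; endpoints were derived by simple linear interpolation of the resulting dose-response curve. GI50 is the concentration that inhibits growth by half. Definition used: TGI = concentration required for complete inhibition of growth.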

Key:
Assay in all cases: growth of human tumour cells (NCI), 48 h
786-0 renal = test system: 786-0 renal
A498 renal = test system: A498 renal
A549 NSCLC = test system: A549 NSCLC
ACHN renal = test system: ACHN renal
BT-549 breast = test system: BT-549 breast
CAKI-1 renal = test system: CAKI-1 renal
CCRF-CEM leukemia = test system: CCRF-CEM leukemia
COLO 205 colon = test system: COLO 205 colon
DU-145 prostate = test system: DU-145 prostate
EKVX NSCLC = test system: EKVX NSCLC
HCC-2998 colon = test system: HCC-2998 colon
HCT-116 colon = test system: HCT-116 colon
HCT-15 colon = test system: HCT-15 colon
HL-60(TB) leukemia = test system: HL-60(TB) leukemia
HOP-62 NSCLC = test system: HOP-62 NSCLC
HOP-92 NSCLC = test system: HOP-92 NSCLC
HS 578T breast = test system: HS 578T breast
HT29 colon = test system: HT29 colon
IGROV1 ovarian = test system: IGROV1 ovarian
K-562 leukemia = test system: K-562 leukemia
KM12 colon = test system: KM12 colon
LOX IMVI melanoma = test system: LOX IMVI melanoma
M14 melanoma = test system: M14 melanoma
MALME-3M melanoma = test system: MALME-3M melanoma
MCF7 breast = test system: MCF7 breast
MDA-MB-231 breast = test system: MDA-MB-231 breast
MDA-MB-435 = test system: MDA-MB-435
MOLT-4 leukemia = test system: MOLT-4 leukemia
NCI-H226 lung = test system: NCI-H226 lung
NCI-H23 lung = test system: NCI-H23 lung
NCI-H460 lung = test system: NCI-H460 lung
NCI-H522 lung = test system: NCI-H522 lung
NCI/ADR-RES ovarian = test system: NCI/ADR-RES ovarian
OVCAR-3 ovarian = test system: OVCAR-3 ovarian
OVCAR-4 ovarian = test system: OVCAR-4 ovarian
OVCAR-5 ovarian = test system: OVCAR-5 ovarian
OVCAR-8 ovarian = test system: OVCAR-8 ovarian
PC-3 prostate = test system: PC-3 prostate
RPMI-8226 leukemia = test system: RPMI-8226 leukemia
RXF 393 renal = test system: RXF 393 renal
SF-268 CNS = test system: SF-268 CNS
SF-295 CNS = test system: SF-295 CNS
SF-539 CNS = test system: SF-539 CNS
SK-MEL-28 melanoma = test system: SK-MEL-28 melanoma
SK-MEL-5 melanoma = test system: SK-MEL-5 melanoma
SK-OV-3 ovarian = test system: SK-OV-3 ovarian
SN12C renal = test system: SN12C renal
SNB-19 CNS = test system: SNB-19 CNS
SNB-75 CNS = test system: SNB-75 CNS
SR leukemia = test system: SR leukemia
SW-620 colon = test system: SW-620 colon
T-47D breast = test system: T-47D breast
TK-10 renal = test system: TK-10 renal
U251 CNS = test system: U251 CNS
UACC-257 melanoma = test system: UACC-257 melanoma
UACC-62 melanoma = test system: UACC-62 melanoma
UO-31 renal = test system: UO-31 renal

CN(c1ccc(Cl)c(Cl)c1)c1cnc2cc(N)cc(N)c2n1
GI50 (786-0 renal): 12.7 µM | TGI (786-0 renal): 26 µM | GI50 (A498 renal): 17.6 µM | TGI (A498 renal): 32.3 µM | GI50 (A549 NSCLC): 13.7 µM | TGI (A549 NSCLC): 45.4 µM | GI50 (ACHN renal): 4.64 µM | TGI (ACHN renal): 16 µM | GI50 (BT-549 breast): 2.73 µM | TGI (BT-549 breast): 6.56 µM | GI50 (CAKI-1 renal): 4.08 µM | TGI (CAKI-1 renal): 17.6 µM | GI50 (CCRF-CEM leukemia): 2.64 µM | TGI (CCRF-CEM leukemia): 8.7 µM | GI50 (COLO 205 colon): 1.79 µM | TGI (COLO 205 colon): 3.47 µM | GI50 (DU-145 prostate): 2.74 µM | TGI (DU-145 prostate): 7.34 µM | GI50 (EKVX NSCLC): 3.63 µM | TGI (EKVX NSCLC): 11.2 µM | GI50 (HCC-2998 colon): 11.5 µM | TGI (HCC-2998 colon): 24.5 µM | GI50 (HCT-116 colon): 2.31 µM | TGI (HCT-116 colon): 4.9 µM | GI50 (HCT-15 colon): 4.57 µM | TGI (HCT-15 colon): 20.1 µM | GI50 (HL-60(TB) leukemia): 2.26 µM | TGI (HL-60(TB) leukemia): 7.56 µM | GI50 (HOP-62 NSCLC): 2.91 µM | TGI (HOP-62 NSCLC): 8.07 µM | GI50 (HOP-92 NSCLC): 13.1 µM | TGI (HOP-92 NSCLC): 33.4 µM | GI50 (HS 578T breast): 2.66 µM | TGI (HS 578T breast): 7.36 µM | GI50 (HT29 colon): 4.07 µM | TGI (HT29 colon): 22 µM | GI50 (IGROV1 ovarian): 5.27 µM | TGI (IGROV1 ovarian): 60.2 µM | GI50 (K-562 leukemia): 4.21 µM | TGI (K-562 leukemia): > 100 µM | GI50 (KM12 colon): 7.2 µM | TGI (KM12 colon): 25.8 µM | GI50 (LOX IMVI melanoma): 1.84 µM | TGI (LOX IMVI melanoma): 3.74 µM | GI50 (M14 melanoma): 1.91 µM | TGI (M14 melanoma): 3.44 µM | GI50 (MALME-3M melanoma): 2.19 µM | TGI (MALME-3M melanoma): 4.28 µM | GI50 (MCF7 breast): 2.03 µM | TGI (MCF7 breast): 4.93 µM | GI50 (MDA-MB-231 breast): 3.37 µM | TGI (MDA-MB-231 breast): 15.4 µM | GI50 (MDA-MB-435): 1.91 µM | TGI (MDA-MB-435): 3.99 µM | GI50 (MOLT-4 leukemia): 3.81 µM | TGI (MOLT-4 leukemia): > 100 µM | GI50 (NCI-H226 lung): 15.1 µM | TGI (NCI-H226 lung): 33.9 µM | GI50 (NCI-H23 lung): 2.11 µM | TGI (NCI-H23 lung): 4.47 µM | GI50 (NCI-H460 lung): 14.2 µM | TGI (NCI-H460 lung): 52.1 µM | GI50 (NCI-H522 lung): 2.58 µM | TGI (NCI-H522 lung): 6.5 µM | GI50 (NCI/ADR-RES ovarian): 10.6 µM | TGI (NCI/ADR-RES ovarian): 30.1 µM | GI50 (OVCAR-3 ovarian): 2.36 µM | TGI (OVCAR-3 ovarian): 10.9 µM | GI50 (OVCAR-4 ovarian): 1.71 µM | TGI (OVCAR-4 ovarian): 3.32 µM | GI50 (OVCAR-5 ovarian): 15.7 µM | TGI (OVCAR-5 ovarian): 30.5 µM | GI50 (OVCAR-8 ovarian): 3.48 µM | TGI (OVCAR-8 ovarian): 15.4 µM | GI50 (PC-3 prostate): 4.15 µM | TGI (PC-3 prostate): 18.1 µM | GI50 (RPMI-8226 leukemia): 3.65 µM | TGI (RPMI-8226 leukemia): 26 µM | GI50 (RXF 393 renal): 4.19 µM | TGI (RXF 393 renal): 40.3 µM | GI50 (SF-268 CNS): 4.62 µM | TGI (SF-268 CNS): 25 µM | GI50 (SF-295 CNS): 3.58 µM | TGI (SF-295 CNS): 12.4 µM | GI50 (SF-539 CNS): 4.71 µM | TGI (SF-539 CNS): 17 µM | GI50 (SK-MEL-28 melanoma): 2.98 µM | TGI (SK-MEL-28 melanoma): 8.06 µM | GI50 (SK-MEL-5 melanoma): 1.96 µM | TGI (SK-MEL-5 melanoma): 3.71 µM | GI50 (SK-OV-3 ovarian): 13.6 µM | TGI (SK-OV-3 ovarian): 37.8 µM | GI50 (SN12C renal): 1.75 µM | TGI (SN12C renal): 3.27 µM | GI50 (SNB-19 CNS): 3.75 µM | TGI (SNB-19 CNS): 15.1 µM | GI50 (SNB-75 CNS): 3.34 µM | TGI (SNB-75 CNS): 9.57 µM | GI50 (SR leukemia): 3.77 µM | TGI (SR leukemia): > 100 µM | GI50 (SW-620 colon): 2.04 µM | TGI (SW-620 colon): 4.34 µM | GI50 (T-47D breast): 2.45 µM | TGI (T-47D breast): 8.95 µM | GI50 (TK-10 renal): 13.2 µM | TGI (TK-10 renal): 27.7 µM | GI50 (U251 CNS): 2.62 µM | TGI (U251 CNS): 6.86 µM | GI50 (UACC-257 melanoma): 1.81 µM | TGI (UACC-257 melanoma): 3.59 µM | GI50 (UACC-62 melanoma): 2.25 µM | TGI (UACC-62 melanoma): 4.43 µM | GI50 (UO-31 renal): 3.4 µM | TGI (UO-31 renal): 16.6 µM
